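Interpolation was linear, between the two tested concentrations surrounding the appropriate level; five concentrations were tested over 48 hours in 96-well plates. GI50 is the concentration that inhibits growth by half.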 Activity calls are given as the source filed them. Cut-off read from the data, not from the text of the source: active = GI50 up to about 1.1 µM and inactive = higher.
Key:
Experiment in all cases: growth of human tumour cells (NCI), 48 h
HCC 2998 = tested on: HCC 2998
KM12 = tested on: KM12
SF-268 = tested on: SF-268
LOX IMVI = tested on: LOX IMVI
M14 = tested on: M14
IGROV-1 = tested on: IGROV-1
SNB-75 = tested on: SNB-75
PC-3 = tested on: PC-3
MCF7 = tested on: MCF7
T47D = tested on: T47D
U-251 = tested on: U-251
SN12C = tested on: SN12C
HT-29 = tested on: HT-29
SK-MEL-2 = tested on: SK-MEL-2
CCRF-CEM = tested on: CCRF-CEM
786-0 = tested on: 786-0
OVCAR-3 = tested on: OVCAR-3
SF-295 = tested on: SF-295
A498 = tested on: A498
SF-539 = tested on: SF-539

SMILES | GI50 (HCC 2998) | GI50 (KM12) | GI50 (SF-268) | GI50 (LOX IMVI) | GI50 (M14) | GI50 (IGROV-1) | GI50 (SNB-75) | GI50 (PC-3) | GI50 (MCF7) | GI50 (T47D) | GI50 (U-251) | GI50 (SN12C) | GI50 (HT-29) | GI50 (SK-MEL-2) | GI50 (CCRF-CEM) | GI50 (786-0) | GI50 (OVCAR-3) | GI50 (SF-295) | GI50 (A498) | GI50 (SF-539)
Cc1ccsc1/C=N/Nc1ncccn1 | > 100 µM (inactive) | 32.4 µM (inactive) | > 100 µM (inactive) | > 100 µM (inactive) | > 100 µM (inactive) | > 100 µM (inactive) | > 100 µM (inactive) | > 100 µM (inactive) | 0.741 µM (active) | > 100 µM (inactive) | > 100 µM (inactive) | > 100 µM (inactive) | > 100 µM (inactive) | > 100 µM (inactive) | > 100 µM (inactive) | > 100 µM (inactive) | > 100 µM (inactive) | > 100 µM (inactive) | > 100 µM (inactive) | 
O=S(=O)(c1ccccc1)[C@@H]1[C@H]2C=C[C@](CS)(O2)[C@H]1S(=O)(=O)c1ccccc1 | > 100 µM (inactive) | > 100 µM (inactive) | > 100 µM (inactive) | 44.6 µM (inactive) | > 100 µM (inactive) | > 100 µM (inactive) | 67.5 µM (inactive) | 35.6 µM (inactive) | 62.5 µM (inactive) | 84.3 µM (inactive) | > 100 µM (inactive) | 38.2 µM (inactive) | > 100 µM (inactive) |  | 2.46 µM (inactive) | 30 µM (inactive) | 19.1 µM (inactive) | > 100 µM (inactive) | > 100 µM (inactive) | 
BrCC[P+](c1ccccc1)(c1ccccc1)c1ccccc1 | 9.42 µM (inactive) | 4.8 µM (inactive) | 2.13 µM (inactive) | 4.23 µM (inactive) | 4.15 µM (inactive) | 13.3 µM (inactive) | 3.23 µM (inactive) | 5.21 µM (inactive) | 13.5 µM (inactive) | 1.27 µM (inactive) | 3.87 µM (inactive) | 1.98 µM (inactive) | 13.3 µM (inactive) | 5.26 µM (inactive) | 2.25 µM (inactive) | 2.75 µM (inactive) | 2.59 µM (inactive) | 30.8 µM (inactive) | 11.4 µM (inactive) | 15 µM (inactive)
COCOc1cc(OCOC)cc(C(=O)Oc2ccccc2)c1 | > 100 µM (inactive) | > 100 µM (inactive) | > 100 µM (inactive) | > 100 µM (inactive) | > 100 µM (inactive) | > 100 µM (inactive) | 78.3 µM (inactive) | 93.8 µM (inactive) | > 100 µM (inactive) | 57.4 µM (inactive) | > 100 µM (inactive) | > 100 µM (inactive) | > 100 µM (inactive) | > 100 µM (inactive) |  | > 100 µM (inactive) | > 100 µM (inactive) | > 100 µM (inactive) | > 100 µM (inactive) | > 100 µM (inactive)
C[N+]1=C2[B-](C(C)(C)C)=[N+](C(C)(C)C)[B-]2(C(C)(C)C)[N+](C)=C2[B-](C(C)(C)C)=[N+](C(C)(C)C)[B-]21C(C)(C)C (stereo not drawn) | > 100 µM (inactive) | > 100 µM (inactive) | > 100 µM (inactive) | > 100 µM (inactive) | > 100 µM (inactive) | > 100 µM (inactive) | > 100 µM (inactive) | > 100 µM (inactive) | 59.4 µM (inactive) | > 100 µM (inactive) | > 100 µM (inactive) | > 100 µM (inactive) | > 100 µM (inactive) | > 100 µM (inactive) | > 100 µM (inactive) | > 100 µM (inactive) | > 100 µM (inactive) | 61.9 µM (inactive) | > 100 µM (inactive) | 
CCCCCCCCC/C=C1\CC(CO)(COC(=O)C2CCCCC2)OC1=O (stereo not drawn) | 23.7 µM (inactive) | 20.4 µM (inactive) | 20.4 µM (inactive) | 11.8 µM (inactive) | 18.6 µM (inactive) | 20.2 µM (inactive) | 15.8 µM (inactive) | 17 µM (inactive) | 23.2 µM (inactive) | 20.9 µM (inactive) | 19.7 µM (inactive) | 16.9 µM (inactive) | 19.7 µM (inactive) | 18.2 µM (inactive) | 12.9 µM (inactive) | 14.9 µM (inactive) | 18.6 µM (inactive) | 15.9 µM (inactive) | 22.1 µM (inactive) | 
O=c1ccn(C2OC(CN(O)CCC3C(CO)OC(n4ccc(=O)[nH]c4=O)C3O)C(O)C2O)c(=O)[nH]1 (stereo not drawn) | > 100 µM (inactive) | > 100 µM (inactive) | > 100 µM (inactive) |  | > 100 µM (inactive) | > 100 µM (inactive) | > 100 µM (inactive) | > 100 µM (inactive) | > 100 µM (inactive) | > 100 µM (inactive) | > 100 µM (inactive) | > 100 µM (inactive) | > 100 µM (inactive) | > 100 µM (inactive) | > 100 µM (inactive) | > 100 µM (inactive) | > 100 µM (inactive) | > 100 µM (inactive) | > 100 µM (inactive) | 
COC(=O)C(NC(=O)c1ccccc1)c1ccco1 (stereo not drawn) | > 100 µM (inactive) | > 100 µM (inactive) | > 100 µM (inactive) |  | > 100 µM (inactive) | > 100 µM (inactive) | > 100 µM (inactive) | > 100 µM (inactive) | > 100 µM (inactive) | > 100 µM (inactive) | > 100 µM (inactive) | > 100 µM (inactive) | > 100 µM (inactive) |  | > 100 µM (inactive) | > 100 µM (inactive) | > 100 µM (inactive) | > 100 µM (inactive) | > 100 µM (inactive) | > 100 µM (inactive)
CCOC(=O)/C=C1\C[C@H](NC(=O)OCc2ccccc2)C(=O)N1CC(=O)OCC | > 100 µM (inactive) | > 100 µM (inactive) | > 100 µM (inactive) |  | > 100 µM (inactive) | > 100 µM (inactive) | > 100 µM (inactive) | > 100 µM (inactive) | > 100 µM (inactive) | > 100 µM (inactive) | > 100 µM (inactive) | > 100 µM (inactive) | > 100 µM (inactive) | > 100 µM (inactive) | > 100 µM (inactive) | > 100 µM (inactive) | > 100 µM (inactive) | > 100 µM (inactive) | > 100 µM (inactive) | > 100 µM (inactive)
COc1ccc(C(=O)N(C(=O)N2CCN(c3ccccc3)CC2)S(=O)(=O)c2ccccc2)cc1 | 52.6 µM (inactive) | 31.6 µM (inactive) | 31.8 µM (inactive) | 13.7 µM (inactive) | 19.7 µM (inactive) |  | 32.7 µM (inactive) | 30.5 µM (inactive) | 29.6 µM (inactive) | 23 µM (inactive) | 18.1 µM (inactive) | 24.3 µM (inactive) | 28.1 µM (inactive) | 18.5 µM (inactive) | 25.1 µM (inactive) | 29.9 µM (inactive) | 37.8 µM (inactive) | 31.9 µM (inactive) | 53.8 µM (inactive) | 17.8 µM (inactive)
CC(C)(C)OC(=O)N(CCCCNC(=O)c1ccccc1)CCCNC(=O)c1ccccc1 | > 100 µM (inactive) | > 100 µM (inactive) | > 100 µM (inactive) |  | > 100 µM (inactive) | > 100 µM (inactive) | > 100 µM (inactive) | 98.6 µM (inactive) | > 100 µM (inactive) | 74.3 µM (inactive) | > 100 µM (inactive) | > 100 µM (inactive) | > 100 µM (inactive) | > 100 µM (inactive) | 72.1 µM (inactive) | > 100 µM (inactive) | > 100 µM (inactive) | > 100 µM (inactive) | > 100 µM (inactive) | > 100 µM (inactive)
CNc1ncccc1Nc1cc(=O)n2c3cccnc3n(C)c2c1 | > 100 µM (inactive) | > 100 µM (inactive) | 51.8 µM (inactive) | > 100 µM (inactive) | > 100 µM (inactive) | 34.1 µM (inactive) | 24.9 µM (inactive) | 9.51 µM (inactive) | > 100 µM (inactive) | > 100 µM (inactive) | 21.8 µM (inactive) |  | 58.3 µM (inactive) |  | > 100 µM (inactive) | > 100 µM (inactive) | > 100 µM (inactive) | 93.5 µM (inactive) | 89.7 µM (inactive) | 73.5 µM (inactive)
C/C(=N/NC(=S)Nc1cccc(Cl)c1)c1cccc(/C(C)=N\NC(=S)Nc2cccc(Cl)c2)n1 | 6.85 µM (inactive) | 3.52 µM (inactive) |  | 1.84 µM (inactive) | 1.62 µM (inactive) | 2.03 µM (inactive) | 2.58 µM (inactive) | 3.46 µM (inactive) | 1.99 µM (inactive) | 3.48 µM (inactive) | 3.13 µM (inactive) | 3.48 µM (inactive) | 2.27 µM (inactive) | 3.73 µM (inactive) | 1.28 µM (inactive) | 0.893 µM (active) | 0.379 µM (active) | 1.77 µM (inactive) | 4.85 µM (inactive) | 0.597 µM (active)
C=CCOC(=O)C1C2OC3(C(C(=O)OC)=C2C(=O)OC)c2ccccc2CCC13 (stereo not drawn) | > 10 µM (inactive) | > 10 µM (inactive) | > 10 µM (inactive) | > 10 µM (inactive) | > 10 µM (inactive) | > 10 µM (inactive) |  | > 10 µM (inactive) | > 10 µM (inactive) | > 10 µM (inactive) | > 10 µM (inactive) | > 10 µM (inactive) | > 10 µM (inactive) | > 10 µM (inactive) | > 10 µM (inactive) | > 10 µM (inactive) | > 10 µM (inactive) | > 10 µM (inactive) | > 10 µM (inactive) | > 10 µM (inactive)
